{"source": "patent US9670266B2", "about": "“Method and composition for crystallizing G protein-coupled receptors” (The Board of Trustees of the Leland Stanford Junior …, priority 2007, dated 2017)", "key": {"β2AR-T4L [1]": {"tested_on": "β2AR-T4L", "conditions": "for λmax ± SD for β2AR-T4L: bimane emission, excitation 350 nm, 15 min incubation with saturating ligand; for ligand-induced change of bimane fluorescence / Intensity at λmax Ligand/Intensity at λmax none: β2AR-T4L; for Intensity at λmax Ligand/Intensity at λmax none: 15 min incubation with ligand"}, "β2AR-T4L [2]": {"tested_on": "β2AR-T4L", "format": "binding"}, "wild-type β2AR [3]": {"target": "wild-type β2AR (Homo sapiens, UniProt P07550)", "assay": "Saturation binding of [^3H]DHA to membranes from Sf9 cells expressing wild-type β2AR"}, "wild-type β2AR [4]": {"target": "wild-type β2AR (Homo sapiens, UniProt P07550, E27Q/G16R/N187E)", "assay": "Saturation binding of [^3H]DHA to membranes from Sf9 cells expressing wild-type β2AR", "conditions": "read-out: Kd ± SE"}, "β2AR-T4L [5]": {"target": "β2AR-T4L (Homo sapiens, UniProt P07550, E27Q/G16R/N187E)", "assay": "Saturation binding of [^3H]DHA to membranes from Sf9 cells expressing β2AR-T4L", "procedure": "Membrane preparation from baculovirus-infected Sf9 cells was performed as described previously (G. Swaminath, J. Steenhuis, B. Kobilka, T. W. Lee, Mol Pharmacol 61, 65 (2002)). For each binding reaction, membranes containing 0.7 μg total membrane protein were used. Saturation binding of [^3H]-dihydroalprenolol (DHA) was measured by incubating membranes resuspended in 500 μl binding buffer (75 mM Tris, 12.5 mM MgCl2, 1 mM EDTA, pH 7.4, supplemented with 0.4 mg/ml BSA) with 12 different concentrations of [^3H]DHA (Perkin Elmer) between 20 pM and 10 nM. After 1 h incubation with shaking at 230 rpm, membranes were filtered from the binding reactions with a Brandel harvester, washed with binding buffer, and measured for bound [^3H]DHA with a Beckman LS6000 scintillation counter. […] For competition binding, membranes resuspended in 500 μl binding buffer were incubated with 0.5 nM [^3H]DHA plus increasing concentrations of the competing ligand (all compounds were purchased from Sigma). […] Each data point in the curves in FIGS. 4A and 10 represents the mean of three separate experiments, each done in triplicate. Binding data were analyzed by nonlinear regression analysis using Graphpad Prism."}, "[6]": {"target": "β2AR Val114^3.33 to alanine mutant (Homo sapiens, UniProt P07550, V114A)", "conditions": "cited from earlier work"}}, "note": "Like-named read-outs stand apart in the source and are kept apart here.", "data": [{"compound": "CC(C)NC[C@H](O)c1ccc(O)c(O)c1", "note": "[(−)-isoproteronol, (−)-isoproterenol]", "values": [{"measurement": "λmax ± SD for β2AR-T4L", "setting": "β2AR-T4L [1]", "result": "455 ± 2", "unit": "nm"}, {"measurement": "ligand-induced change of bimane fluorescence", "setting": "β2AR-T4L [1]", "result": "qualitatively similar decrease in intensity and rightward shift in λmax"}, {"measurement": "Intensity at λmax Ligand/Intensity at λmax none", "setting": "β2AR-T4L [1]", "result": "0.824 ± 0.006"}, {"measurement": "affinity of β2AR-T4L relative to wild-type β2AR", "setting": "β2AR-T4L [2]; competition binding", "result": "two to three-fold higher"}]}, {"compound": "CCCc1ccccc1OCC(O)CNC(C)C", "note": "(centres unmarked) [[^3H]DHA, [^3H]-dihydroalprenolol]", "values": [{"measurement": "Bmax", "setting": "wild-type β2AR [3]", "result": "30.0 ± 0.5", "unit": "pmol/mg"}, {"measurement": "Kd", "setting": "wild-type β2AR [4]", "result": "0.161 ± 0.012", "unit": "nM"}, {"measurement": "affinity of β2AR-T4L relative to wild-type β2AR", "setting": "β2AR-T4L [5]", "result": "wild-type affinity"}, {"measurement": "Bmax", "setting": "β2AR-T4L [5]; β2AR-T4L, Sf9 membranes", "result": "21.6 ± 0.5", "unit": "pmol/mg"}, {"measurement": "Kd", "setting": "β2AR-T4L [5]; β2AR-T4L, Sf9 membranes, read-out: Kd ± SE", "result": "0.18 ± 0.016", "unit": "nM"}]}, {"compound": "CC(C)(C)NCC(O)c1ccc(O)c(CO)c1", "note": "(centres unmarked) [salbutamol]", "values": [{"measurement": "λmax ± SD for β2AR-T4L", "setting": "β2AR-T4L [1]", "result": "449 ± 1", "unit": "nm"}, {"measurement": "ligand-induced change of bimane fluorescence", "setting": "β2AR-T4L [1]", "result": "larger responses in β2AR-T4L than were observed in wild-type β2AR"}, {"measurement": "Intensity at λmax Ligand/Intensity at λmax none", "setting": "β2AR-T4L [1]", "result": "0.928 ± 0.009"}]}, {"compound": "(−)-epinephrine", "values": [{"measurement": "lowering of β2AR affinity on mutation of Val114^3.33 to alanine", "setting": "[6]", "result": 300, "unit": "fold"}, {"measurement": "affinity of β2AR-T4L relative to wild-type β2AR", "setting": "β2AR-T4L [2]", "result": "two to three-fold higher"}]}]}
